Results on 34 compounds are retold here after US20240150377A1, “MODULATORS OF CYSTIC FIBROSIS TRANSMEMBRANE CONDUCTANCE REGULATOR” (VERTEX PHARMACEUTICALS INCORPORATED, priority 2020, published 2024).

Assay [1] has as its target T1, CFTR (Homo sapiens, UniProt P13569, DEL508-508).
T1 construct: endogenous in cells; host or cells: primary human bronchial epithelial cells from CF subjects (F508del/MF-HBE), differentiated at air-liquid interface
Put plainly: HBE assay: Ussing chamber assay of CFTR-mediated short-circuit currents. As to conditions: HBE assay; 10 μM; read-out: HBE Activity at 10 μM (%). Format: cell-based. The method in brief: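 CFTR-mediated Isc (μA/cm²) equals the peak response to apical 20 μM forskolin minus the residual after a 20 μM each BPO/GlyH-101/CFTR inhibitor 172 cocktail, recorded in Ussing chambers at Vhold 0 mV, 37 °C, pH 7.4, with 30 μM apical amiloride. Cells were F508del/MF HBE cultures preincubated 18-24 h with corrector (concentration range or 10 μM) plus 1 μM ivacaftor in 20% human serum.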

Assay [2] addresses T1, CFTR. The assay can be described thus: HBE2 assay: Ussing chamber assay of CFTR-mediated short-circuit currents. Format: cell-based. As to conditions: F508del/MF-HBE cells, 18-24 hours, 20% human serum; for Emax: read-out: HBE2 Max activity (%). The method in brief:
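F508del/MF-HBE cultured >14 days at air-liquid interface, mounted in Ussing chambers; transepithelial short-circuit current recorded under voltage clamp (Vhold=0 mV) at 37 °C. CFTR-mediated ISC (μA/cm^2) taken as peak forskolin response relative to steady-state current after inhibition; corrector activity assessed this way.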

Where [3] appears, read: 3 μM corrector, with 44 nM potentiator.

SMILES strings stand for the structures. pEC50: −log10 of the molar value. Bounds are passed on as bounds.

T1 sequence (P13569 with tags, fused parts or gaps DEL508-508): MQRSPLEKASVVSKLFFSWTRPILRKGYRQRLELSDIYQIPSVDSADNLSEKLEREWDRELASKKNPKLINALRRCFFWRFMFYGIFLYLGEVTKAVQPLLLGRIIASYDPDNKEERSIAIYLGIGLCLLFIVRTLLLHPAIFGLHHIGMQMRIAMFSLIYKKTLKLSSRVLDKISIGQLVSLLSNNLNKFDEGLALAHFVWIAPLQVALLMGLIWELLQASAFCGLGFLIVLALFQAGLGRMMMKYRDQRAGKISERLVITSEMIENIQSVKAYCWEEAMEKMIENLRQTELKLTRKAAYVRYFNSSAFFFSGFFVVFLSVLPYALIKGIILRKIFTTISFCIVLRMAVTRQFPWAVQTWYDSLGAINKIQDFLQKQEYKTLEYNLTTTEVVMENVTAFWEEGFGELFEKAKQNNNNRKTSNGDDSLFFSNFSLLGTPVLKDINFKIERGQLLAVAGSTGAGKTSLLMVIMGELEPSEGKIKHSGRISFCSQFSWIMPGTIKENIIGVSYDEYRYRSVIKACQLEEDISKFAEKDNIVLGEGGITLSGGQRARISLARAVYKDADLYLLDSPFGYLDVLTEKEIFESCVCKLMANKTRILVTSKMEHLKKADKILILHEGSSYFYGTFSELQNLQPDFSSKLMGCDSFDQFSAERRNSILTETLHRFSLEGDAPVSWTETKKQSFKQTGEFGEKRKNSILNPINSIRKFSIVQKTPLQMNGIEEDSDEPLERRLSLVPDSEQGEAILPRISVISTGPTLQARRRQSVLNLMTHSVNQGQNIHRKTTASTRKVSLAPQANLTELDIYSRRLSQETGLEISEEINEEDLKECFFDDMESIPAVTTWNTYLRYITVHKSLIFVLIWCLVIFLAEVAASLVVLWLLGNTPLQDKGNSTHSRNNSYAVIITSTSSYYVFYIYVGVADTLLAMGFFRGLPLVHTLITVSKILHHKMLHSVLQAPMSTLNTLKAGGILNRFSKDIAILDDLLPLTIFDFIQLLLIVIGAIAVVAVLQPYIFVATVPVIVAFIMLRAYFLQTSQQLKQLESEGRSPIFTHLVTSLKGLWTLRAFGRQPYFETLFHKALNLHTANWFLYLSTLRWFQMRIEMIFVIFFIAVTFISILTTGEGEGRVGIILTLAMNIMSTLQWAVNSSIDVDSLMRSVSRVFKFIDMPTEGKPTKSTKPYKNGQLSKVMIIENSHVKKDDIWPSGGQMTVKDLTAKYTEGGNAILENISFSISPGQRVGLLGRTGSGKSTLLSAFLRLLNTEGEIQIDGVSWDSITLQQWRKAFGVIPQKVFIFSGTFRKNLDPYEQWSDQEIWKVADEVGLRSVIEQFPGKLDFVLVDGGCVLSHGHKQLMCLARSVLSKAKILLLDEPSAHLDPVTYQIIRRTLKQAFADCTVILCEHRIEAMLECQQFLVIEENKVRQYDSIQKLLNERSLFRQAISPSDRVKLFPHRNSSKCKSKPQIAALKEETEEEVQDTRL

As for `CC[C@H](C)Oc1cnc(CN2C(=O)c3cccc(c3)S(=O)(=O)Nc3nc(cc(-c4c(C)cccc4C)n3)OC[C@H]2CCC(C)(C)C)nc1` [Compound 1547], the activation at 10 µM in assay [1] was > 60%. Further, the “HBE2 Activity at 3 μM (%)” value in assay [2] (3 μM, with 44 nM potentiator) was “+++ (+++ is >60+)”. As to `Cc1cccc(C)c1-c1cc2nc(n1)NS(=O)(=O)c1cccc(c1)C(=O)N(Cc1cnc3cc(C(C)C)n(C)c3n1)[C@H](CC1CCCC1)CO2` [Compound 1334, (11R)-11-(Cyclopentylmethyl)-6-(2,6-dimethylphenyl)-12-[(6-isopropyl-5-methyl-pyrrolo[2,3-b]pyrazin-3-yl)methyl]-2,2-dioxo-9-oxa-2λ^6-thia-3,5,12,19-tetrazatricyclo[12.3.1.14,8]nonadeca-1(18),4(19),5,7,14,16-hexaen-13-one], the “HBE2 Activity at 3 μM (%)” value in assay [2] (setting [3]) is given as “+++ (+++ is >60+)”. With `Cc1cccc(C)c1-c1cc2nc(n1)NS(=O)(=O)c1cccc(c1)C(=O)N(Cc1cncc(N(C)C3CC(F)(F)C3)n1)[C@H](CC(C)(C)C)CO2` [Compound 1602], in assay [2] (with 44 nM potentiator), the pEC50 (in general, the EC50 on a negative log10 scale, so that one unit is a factor of ten) was > 6.00 and the Emax is > 60%. In the case of `Cc1cccc(C)c1-c1cc2nc(n1)NS(=O)(=O)c1cccc(c1)C(=O)N(Cc1cncc(N(C)CC(C)(C)F)n1)[C@H](CC(C)(C)C)CO2` [Compound 1759], the “HBE2 Activity at 3 μM (%)” value in assay [2] (setting [3]) is given as “+++ (+++ is >60+)”. Turning to `CC[C@@]1(COC)CCCN1c1cccc(CN2C(=O)c3cccc(c3)S(=O)(=O)Nc3nc(cc(-c4c(C)cccc4C)n3)OC[C@H]2CC(C)(C)C)n1` [Compound 1617], the “HBE2 Activity at 3 μM (%)” value in assay [2] (3 μM, with 44 nM potentiator) was “+++ (+++ is >60+)”. On the same count and under the same terms, the same measure for `Cc1cccc(C)c1-c1cc2nc(n1)NS(=O)(=O)c1cccc(c1)C(=O)N(Cc1ncc(OC(C)C)cn1)[C@H]([C@@H](C)C(C)C)CO2` (stereo in doubt) [Compound 1573]: “+++ (+++ is >60+)”. As to `Cc1cccc(C)c1-c1cc2nc(n1)NS(=O)(=O)c1cccc(c1)C(=O)N(Cc1cncc(N3[C@H](C)CC[C@H]3C)n1)[C@H](CCC(C)(C)C)CO2` [Compound 1947], the “HBE2 Activity at 3 μM (%)” value in assay [2] (setting [3]) is “+++ (+++ is >60+)”.

Regarding `COC[C@@H]1CCN1c1cncc(CN2C(=O)c3cccc(c3)S(=O)(=O)Nc3nc(cc(-c4c(C)cccc4C)n3)OC[C@H]2CCC(C)(C)C)n1` [Compound 1730], in assay [2] (setting [3]), the “HBE2 Activity at 3 μM (%)” value was “+++ (+++ is >60+)”. The pEC50 in assay [2] (corrector at a range of concentrations with 44 nM potentiator) was > 6.00. Further, the Emax in assay [2] (with 44 nM potentiator) is > 60%.

On to `Cc1cccc(C)c1-c1cc2nc(n1)NS(=O)(=O)c1cccc(c1)C(=O)N(Cc1nccc(N3CC[C@H]3C)n1)[C@H](CC(C)(C)C)CO2` [Compound 1552], for which, in assay [2] (3 μM, with 44 nM potentiator), the “HBE2 Activity at 3 μM (%)” value is listed as “+++ (+++ is >60+)”. Take `Cc1cccc(C)c1-c1cc2nc(n1)NS(=O)(=O)c1cccc(c1)C(=O)N(Cc1cncc(N3CCCC4CCC43)n1)[C@H](CC1(C)CCC1)CO2` (stereo partly shown) [Compound 1793]: in assay [2] (setting [3]), the “HBE2 Activity at 3 μM (%)” value is recorded as “+++ (+++ is >60+)”. Still for that read-out and setting: next, `Cc1cccc(C)c1-c1cc2nc(n1)NS(=O)(=O)c1cccc(c1)C(=O)N(Cc1cncc(N3CCCO[C@H]4CC[C@H]43)n1)[C@H](CC(C)(C)C)CO2` (stereo in doubt) [Compound 1952]: “+++ (+++ is >60+)”. Same read-out and setting: next, `CCC(C)(C)C[C@@H]1COc2cc(-c3c(C)cccc3C)nc(n2)NS(=O)(=O)c2cccc(c2)C(=O)N1Cc1cncc(N(C)C2CCC2)n1` (single isomer, unassigned) [Compound 1330, 12-[[6-[cyclobutyl(methyl)amino]pyrazin-2-yl]methyl]-11-(2,2-dimethylbutyl)-6-(2,6-dimethylphenyl)-2,2-dioxo-9-oxa-2λ^6-thia-3,5,12,19-tetrazatricyclo[12.3.1.14,8]nonadeca-1(18),4,6,8(19),14,16-hexaen-13-one]: “+++ (+++ is >60+)”.

On to `Cc1cccc(C)c1-c1cc2nc(n1)NS(=O)(=O)c1cccc(c1)C(=O)N(Cc1ccnc(N(C)C3CCC3)n1)[C@H](CC(C)(C)C)CO2` [Compound 1616], for which, in assay [2] (3 μM, with 44 nM potentiator), the “HBE2 Activity at 3 μM (%)” value was “+++ (+++ is >60+)”. For `Cc1cccc(C)c1-c1cc2nc(n1)NS(=O)(=O)c1cccc(c1)C(=O)N(Cc1cncc(N(C)CC(C)(C)C)n1)[C@H](CCC(C)(C)C)CO2` [Compound 1739], in assay [2] (setting [3]), the “HBE2 Activity at 3 μM (%)” value is “+++ (+++ is >60+)”. The same measure, in the same setting: next, `Cc1cccc(C)c1-c1cc2nc(n1)NS(=O)(=O)c1cccc(c1)C(=O)N(Cc1cncc(N3CC(F)(F)[C@H]3C)n1)[C@H](CC(C)(C)C)CO2` [Compound 1769]: “+++ (+++ is >60+)”; `CCc1cc2ncc(CN3C(=O)c4cccc(c4)S(=O)(=O)Nc4nc(cc(-c5c(C)cccc5C)n4)OC[C@H]3CC(C)(C)C)nc2n1C` [Compound 1911]: “+++ (+++ is >60+)”. Consider `Cc1cccc(C)c1-c1cc2nc(n1)NS(=N)(=O)c1cccc(c1)C(=O)N(Cc1ncc(OC(C)C)cn1)[C@H](CC(C)(C)C)CO2` (stereo partly shown) [Compound 1574], for which the “HBE2 Activity at 3 μM (%)” value in assay [2] (3 μM, with 44 nM potentiator) is “++ (++ is 30-60%)”.

Take `Cc1cccc(C)c1-c1cc2nc(n1)NS(=O)(=O)c1cccc(c1)C(=O)N(Cc1cncc(N3CCCC[C@H]3C)n1)[C@H](COC1CC1)CO2` [Compound 1908]: the “HBE2 Activity at 3 μM (%)” value in assay [2] (setting [3]) is “+++ (+++ is >60+)”. Regarding `Cc1cccc(C)c1-c1cc2nc(n1)NS(=O)(=O)c1cccc(c1)C(=O)N(Cc1coc(N(C)C3CC(F)(F)C3)n1)[C@H](CC(C)(C)C)CO2` [Compound 1647], the “HBE2 Activity at 3 μM (%)” value in assay [2] (3 μM, with 44 nM potentiator) is reported as “+++ (+++ is >60+)”. Regarding `Cc1cccc(C)c1-c1cc2nc(n1)NS(=O)(=O)c1cccc(c1)C(=O)N(Cc1cccc(N3CCC[C@H]3C)n1)[C@H](CCC(C)(C)C)CO2` [Compound 1789], the “HBE2 Activity at 3 μM (%)” value in assay [2] (setting [3]) is on record as “+++ (+++ is >60+)”. The same measure, in the same setting: next, `Cc1cccc(C)c1-c1cc2nc(n1)NS(=O)(=O)c1cccc(c1)C(=O)N(Cc1cncc(N3CCC[C@H]3C)n1)[C@H](CCC(C)(C)C)CO2` [Compound 1814]: “+++ (+++ is >60+)”; `Cc1cccc(C)c1-c1cc2nc(n1)NS(=O)(=O)c1cccc(c1)C(=O)N(Cc1cncc(N3CCC[C@H]3C)n1)[C@H](CC1CCCCC1)CO2` [Compound 1331, (11R)-11-(Cyclohexylmethyl)-6-(2,6-dimethylphenyl)-12-[[6-[(2R)-2-methylpyrrolidin-1-yl]pyrazin-2-yl]methyl]-2,2-dioxo-9-oxa-2^6-thia-3,5,12,19-tetrazatricyclo[12.3.1.14,8]nonadeca-1(18),4(19),5,7,14,16-hexaen-13-one]: “+++ (+++ is >60+)”. Still for that read-out and setting: next, `Cc1cccc(C)c1-c1cc2nc(n1)NS(=O)(=O)c1cccc(c1)C(=O)N(Cc1cncc(N3CCC[C@H]3C(C)C)n1)[C@H](CC1(C)CCC1)CO2` [Compound 1775]: “+++ (+++ is >60+)”.

For `Cc1cccc(C)c1-c1cc2nc(n1)NS(=O)(=O)c1cccc(c1)C(=O)N(Cc1cncc(N(C)C3CC4(CC4)C3)n1)[C@H](CCC(C)(C)C)CO2` [Compound 1817], the “HBE2 Activity at 3 μM (%)” value in assay [2] (setting [3]) was “+++ (+++ is >60+)”. Take `Cc1cccc(C)c1-c1cc2nc(n1)NS(=O)(=O)c1cccc(c1)C(=O)N(Cc1cncc(N3CC4OCC[C@@H]43)n1)[C@H](CC(C)(C)C)CO2` (stereo in doubt) [Compound 1629]: the “HBE2 Activity at 3 μM (%)” value in assay [2] (3 μM, with 44 nM potentiator) is listed as “+++ (+++ is >60+)”. As for `Cc1ccccc1-c1cc2nc(n1)NS(=O)(=O)c1cccc(c1)C(=O)N(Cc1cncc(N(C)C3CCC3)n1)[C@H](CC(C)(C)C)CO2` [Compound 1705], the “HBE2 Activity at 3 μM (%)” value in assay [2] (3 μM, with 44 nM potentiator) was “+++ (+++ is >60+)”. In assay [2] (with 44 nM potentiator), the pEC50 is > 6.00 and the Emax is > 60%. Regarding `Cc1cccc(C)c1-c1cc2nc(n1)NS(=O)(=O)c1cccc(c1)C(=O)N(Cc1cncc(N3CC[C@H]3C)n1)[C@H](CC1CC1)CO2` [Compound 1778], in assay [2] (setting [3]), the “HBE2 Activity at 3 μM (%)” value is recorded as “+++ (+++ is >60+)”. As for `Cc1cccc(C)c1-c1cc2nc(n1)NS(=O)(=O)c1cccc(c1)C(=O)N(Cc1nccc(N(C)C(C)C)n1)[C@H](CCC(C)(C)C)CO2` [Compound 1715], in assay [2] (setting [3]), the “HBE2 Activity at 3 μM (%)” value is recorded as “+++ (+++ is >60+)”.

With `Cc1cccc(C)c1-c1cc2nc(n1)NS(=O)(=O)c1cccc(c1)C(=O)N(Cc1cncc(N(C)C(C)C)n1)[C@H](CCC(C)(C)C)CO2` [Compound 1788], the “HBE2 Activity at 3 μM (%)” value in assay [2] (setting [3]) is “+++ (+++ is >60+)”. The same measure, in the same setting: the same measure for `Cc1cccc(C)c1-c1cc2nc(n1)NS(=O)(=O)c1cccc(c1)C(=O)N(Cc1cncc(N3CCCC[C@H]3C)n1)[C@H](CC1CCCCC1)CO2` [Compound 1822]: “+++ (+++ is >60+)”. Still for that read-out and setting: the same measure for `Cc1cccc(C)c1-c1cc2nc(n1)NS(=O)(=O)c1cccc(c1)C(=O)N(Cc1cncc(N(C)CC(C)C)n1)[C@H](CC1CCCCC1)CO2` [Compound 1821]: “+++ (+++ is >60+)”. With `CC(=O)N(C)c1cccc(CN2C(=O)c3cccc(c3)S(=O)(=O)Nc3nc(cc(-c4c(C)cccc4C)n3)OC[C@H]2CC(C)(C)C)n1` [Compound 1583], the “HBE2 Activity at 3 μM (%)” value in assay [2] (3 μM, with 44 nM potentiator) was “+++ (+++ is >60+)”.

For the compound `CCCCN(C)c1cncc(CN2C(=O)c3cccc(c3)S(=O)(=O)Nc3nc(cc(-c4c(C)cccc4C)n3)OC[C@H]2CC(C)(C)C)n1` [Compound 1698], the “HBE2 Activity at 3 μM (%)” value in assay [2] (3 μM, with 44 nM potentiator) is on record as “+++ (+++ is >60+)”.

For `Cc1cccc(C)c1-c1cc2nc(n1)NS(=O)(=O)c1cccc(c1)C(=O)N(Cc1cccc([C@@H](C)NC(=O)C(C)C)n1)[C@H](CC(C)(C)C)CO2` [Compound 1590], the “HBE2 Activity at 3 μM (%)” value in assay [2] (3 μM, with 44 nM potentiator) is recorded as “+++ (+++ is >60+)”.
